System: BMP signal in MDA-231-D-BREFluc/Rluc cells
Assay: BMP signal inhibitory effect (AlphaScreen SureFire SMAD1 p-Ser463/465, BMP-6 stimulation)
Format: cell-based
Details: not given
Method in brief: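 MDA-231-D-BREFluc/Rluc cells were pretreated with compound for 2 h at 37° C, then stimulated with BMP-6 for 30 min. SMAD1 p-Ser463/465 in lysates was measured by AlphaScreen SureFire.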

Row | SMILES | IC50 [µM]
1 | CCn1cc(-c2ccnc(Nc3ccc(C(=O)N4CC5CCC(C4)N5C4CCCC4)cc3)n2)c(-c2cccnc2)n1 [Example 118, (8-Cyclopentyl-3,8-diazabicyclo [3.2.1]octan-3-yl) (4-((4-(1-ethyl-3-(pyridin-3-yl)-1H-pyrazol-4-yl)pyrimidin-2-yl)amino)phenyl) methanone] | 0.0086
2 | CCn1cc(-c2ccnc(Nc3ccc(C(=O)N(C)C4CC5CCC(C4)N5C(C)C)cc3)n2)c(-c2cccnc2)n1 (centres unmarked) [Example 5, 4-((4-(1-Ethyl-3-(pyridin-3-yl)-1H-pyrazol-4-yl)pyrimidin-2-yl)amino)-N-(8-isopropyl-8-azabicyclo[3.2.1]octan-3-yl)-N-methylbenzamide] | 0.0169

Same assay, conditions: BMP-6 stimulated MDA-231-D-BREFluc/Rluc cells, phospho-SMAD1 AlphaScreen; read-out: IC50

Row | SMILES | IC50 [µM]
3 | COCCN1CCN(c2ccc(Nc3nccc(-c4cn(Cc5ccccc5C#N)nc4-c4cccnc4)n3)cc2)CC1 [Example 82] | 0.0184
4 | c1cncc(Cn2cc(-c3ccnc(Nc4ccc(N5CCNCC5)cc4)n3)c(-c3cccnc3)n2)c1 [Example 141, N-(4-(Piperazin-1-yl)phenyl)-4-(3-(pyr-3-yl)-1-(pyridin-3-ylmethyl)-1H-pyrazol-4-yl)pyrimidin-2-amine] | 0.0552
5 | CCn1cc(-c2ccnc(Nc3ccc(N4CCC5(CC4)CN(C(C)=O)C5)cc3)n2)c(-c2cccnc2)n1 [Example 21, 1-(7-(4-((4-(1-ethyl-3-(pyridin-3-yl)-1H-pyrazol-4-yl)pyrimidin-2-yl)amino)phenyl)-2,7-diazaspiro[3.5]nonan-2-yl)ethan-1-one] | 0.039
6 | CCn1cc(-c2ccnc(Nc3ccc(N4CCN(CC5CC(C)(C)O5)CC4)cc3)n2)c(-c2cccnc2)n1 (centres unmarked) [Example 96, N-(4-(4-((4,4-dimethyloxetan-2-yl)methyl)piperazin-1-yl)phenyl)-4-(1-ethyl-3-(pyridin-3-yl)-1H-pyrazol-4-yl)pyrimidin-2-amine] | 0.0209
7 | CN1CCc2cc(Nc3nccc(-c4cn(CC5CCOC5)nc4-c4cccnc4)n3)ccc2C1 (centres unmarked) [Example 10, 2-Methyl-N-(4-(3-(pyridin-3-yl)-1-((tetrahydrofuran-3-yl)methyl)-1H-pyrazol-4-yl)pyrimidin-2-yl)-1,2,3,4-tetrahydroisoquinolin-6-amine] | 0.0058
8 | CCn1cc(-c2ccnc(Nc3ccc(C4CCCN(CCOC)C4)cc3)n2)c(-c2cccnc2)n1 (centres unmarked) [Example 100, 4-(1-Ethyl-3-(pyridin-3-yl)-1H-pyrazol-4-yl)-N-(4-(1-(2-methoxyethyl)piperidin-3-yl)phenyl)pyrimidin-2-amine] | 0.0186
9 | CCn1cc(-c2ccnc(Nc3ccc(C4CCN(CCOC)C4)cc3)n2)c(-c2cccnc2)n1 (centres unmarked) [Example 50, 4-(1-ethyl-3-(pyridin-3-yl)-1H-pyrazol-4-yl)-N-(4-(1-(2-methoxyethyl)pyrrolidin-3-yl)phenyl)pyrimidin-2-amine] | 0.0063
10 | CCn1cc(-c2ccnc(Nc3ccc(N4CCN(CC(N)=O)CC4)cc3)n2)c(-c2cccnc2)n1 [Example 87, 2-(4-(4-((4-(1-Ethyl-3-(pyridin-3-yl)-1H-pyrazol-4-yl)pyrimidin-2-yl)amino)phenyl)piperazin-1-yl)acetamide] | 0.0297
11 | CCn1cc(-c2ccnc(Nc3ccc(N4CCN(CCOC)CC4)nc3)n2)c(-c2cccnc2)n1 [Example 84, 4-(1-Ethyl-3-(pyridin-3-yl)-1H-pyrazol-4-yl)-N-(6-(4-(2-methoxyethyl)piperazin-1-yl)pyridin-3-yl)pyrimidin-2-amine] | 0.0193
12 | CCn1cc(-c2ccnc(Nc3ccc(C4CCN(CCOC)CC4)cc3)n2)c(-c2cccnc2)n1 [Example 58, 4-(1-ethyl-3-(pyridin-3-yl)-1H-pyrazol-4-yl)-N-(4-(1-(2-methoxyethyl)piperidin-4-yl)phenyl)pyrimidin-2-amine] | 0.0044
13 | CCn1cc(-c2ccnc(Nc3ccc(N4CCCN(CCOC)CC4)cc3)n2)c(-c2cccnc2)n1 [Example 94, 4-(1-Ethyl-3-(pyridin-3-yl)-1H-pyrazol-4-yl)-N-(4-(4-(2-methoxyethyl)-1,4-diazepan-1-yl)phenyl)pyrimidin-2-amine] | 0.0243
14 | COCC(O)CN1CCN(c2ccc(Nc3nccc(-c4cn(CC(C)(C)O)nc4-c4cccnc4)n3)cc2)CC1 (centres unmarked) [Example 111, 1-(4-(2-((4-(4-(2-Hydroxy-3-methoxypropyl)piperazin-1-yl)phenyl)amino)pyrimidin-4-yl)-3-(pyridin-3-yl)-1H-pyrazol-1-yl)-2-methylpropan-2-ol] | 0.0273
15 | CCn1cc(-c2ccnc(Nc3ccc4c(c3)CCN(CC(O)COC)C4)n2)c(-c2cccnc2)n1 (centres unmarked) [Example 109, 1-(6-((4-(1-Ethyl-3-(pyridin-3-yl)-1H-pyrazol-4-yl)pyrimidin-2-yl)amino)-3,4-dihydroisoquinolin-2 (1H)-yl)-3-methoxypropan-2-ol] | 0.0057
16 | CCn1cc(-c2ccnc(Nc3ccc(N4CCOCC4)cc3)n2)c(-c2cccnc2)n1 [Example 22, 4-(1-ethyl-3-(pyridin-3-yl)-1H-pyrazol-4-yl)-N-(4-morpholinophenyl)pyrimidin-2-amine] | 0.019
17 | CCn1cc(-c2ccnc(Nc3ccc(N4CCC[C@@H](N)C4)cc3)n2)c(-c2cccnc2)n1 [Example 161, (R)-N-(4-(3-Aminopiperidin-1-yl)phenyl)-4-(1-ethyl-3-(pyridin-3-yl)-1H-pyrazol-4-yl)pyrimidin-2-amine] | 0.0126
18 | CCn1cc(-c2ccnc(Nc3ccc(N4CCN(CCOCC(F)F)CC4)cc3)n2)c(-c2cccnc2)n1 [Example 51, N-(4-(4-(2-(2,2-difluoroethoxy)ethyl)piperazin-1-yl)phenyl)-4-(1-ethyl-3-(pyridin-3-yl)-1H-pyrazol-4-yl)pyrimidin-2-amine] | 0.0183
19 | CCn1cc(-c2ccnc(Nc3ccc(OC4CN(CC(C)(C)O)C4)cc3)n2)c(-c2cccnc2)n1 [Example 108, 1-(3-(4-((4-(1-Ethyl-3-(pyridin-3-yl)-1H-pyrazol-4-yl)pyrimidin-2-yl)amino)phenoxy)azetidin-1-yl)-2-methylpropan-2-ol] | 0.0133

Now from value to molecule:

Row | IC50 [µM] | SMILES
20 | 0.0461 | COCCN1CCN(c2ccc(Nc3nccc(-c4cn(C5CCOC5)nc4-c4cccnc4)n3)cc2)CC1 (centres unmarked) [Example 76, N-(4-(4-(2-methoxyethyl)piperazin-1-yl)phenyl)-4-(3-(pyridin-3-yl)-1-(tetrahydrofuran-3-yl)-1H-pyrazol-4-yl)pyrimidin-2-amine]
21 | 0.0383 | CCn1cc(-c2ccnc(Nc3ccc4c(c3)CCN(CC(=O)O)C4)n2)c(-c2cccnc2)n1 [Example 172, 2-(6-((4-(1-ethyl-3-(pyridin-3-yl)-1H-pyrazol-4-yl)pyrimidin-2-yl)amino)-3,4-dihydroisoquinolin-2(1H)-yl)acetic acid]
22 | 0.0357 | CN1CCCC1CN1CCN(c2ccc(Nc3nccc(-c4cn(C5COC5)nc4-c4cccnc4)n3)cc2)CC1 (centres unmarked) [Example 79, N-(4-(4-((1-Methylpyrrolidin-2-yl)methyl)piperazin-1-yl)phenyl)-4-(1-(oxetan-3-yl)-3-(pyridin-3-yl)-1H-pyrazol-4-yl)pyrimidin-2-amine]
23 | 0.0319 | c1ccc(Cn2cc(-c3ccnc(Nc4ccc(N5CCNCC5)cc4)n3)c(-c3cccnc3)n2)nc1 [Example 140, N-(4-(Piperazin-1-yl)phenyl)-4-(1-(pyridin-2-ylmethyl)-3-(pyridin-3-yl)-1H-pyrazol-4-yl)pyrimidin-2-amine]
24 | 0.0294 | CCn1cc(-c2ccnc(Nc3ccc(C4CCN(C5COC5)CC4)cc3)n2)c(-c2cccnc2)n1 [Example 11, 4-(1-Ethyl-3-(pyridin-3-yl)-1H-pyrazol-4-yl)-N-(4-(1-(oxetan-3-yl)piperidin-4-yl)phenyl)pyrimidin-2-amine]
25 | 0.0151 | CCn1cc(-c2ccnc(Nc3ccc(C(=O)N4CCN(C)CC4)cc3)n2)c(-c2cccnc2)n1 [Example 116, (4-((4-(1-Ethyl-3-(pyridin-3-yl)-1H-pyrazol-4-yl)pyrimidin-2-yl)amino)phenyl)(4-methylpiperazin-1-yl)methanone]
26 | 0.0148 | CCn1cc(-c2ccnc(Nc3ccc4c(c3)CCN(C3COC3)C4)n2)c(-c2cccnc2)n1 [Example 95, N-(4-(1-Ethyl-3-(pyridin-3-yl)-1H-pyrazol-4-yl)pyrimidin-2-yl)-2-(oxetan-3-yl)-1,2,3,4-tetrahydroisoquinolin-6-amine]
27 | 0.0104 | c1cncc(-c2nn(C3COC3)cc2-c2ccnc(Nc3ccc(N4CCN(CC5CC5)CC4)cc3)n2)c1 [Example 103, N-(4-(4-(Cyclopropylmethyl)piperazin-1-yl)phenyl)-4-(1-(oxetan-3-yl)-3-(pyridin-3-yl)-1H-pyrazol-4-yl)pyrimidin-2-amine]
28 | 0.0068 | CN1CCc2cc(Nc3nccc(-c4cn(C5COC5)nc4-c4cccnc4)n3)ccc2C1 [Example 8, 2-methyl-N-(4-(1-(oxetan-3-yl)-3-(pyridin-3-yl)-1H-pyrazol-4-yl)pyrimidin-2-yl)-1,2,3,4-tetrahydroisoquinolin-6-amine]
29 | 0.0052 | CCn1cc(-c2ccnc(Nc3ccc(CCN4CCN(CCOC)CC4)cc3)n2)c(-c2cccnc2)n1 [Example 43, 4-(1-ethyl-3-(pyridin-3-yl)-1H-pyrazol-4-yl)-N-(4-(2-(4-(2-methoxyethyl)piperazin-1-yl)ethyl)phenyl)pyrimidin-2-amine]
30 | 0.004 | COCCn1cc(-c2ccnc(Nc3ccc4c(c3)CCN(C)C4)n2)c(-c2cccnc2)n1 [Example 64, N-(4-(1-(2-Methoxyethyl)-3-(pyridin-3-yl)-1H-pyrazol-4-yl)pyrimidin-2-yl)-2-methyl-1,2,3,4-tetrahydroisoquinolin-6-amine]
31 | 0.0038 | CCn1cc(-c2ccnc(Nc3ccc4c(c3)CCN(CCOC)CC4)n2)c(-c2cccnc2)n1 [Example 93, N-(4-(1-Ethyl-3-(pyridin-3-yl)-1H-pyrazol-4-yl)pyrimidin-2-yl)-3-(2-methoxyethyl)-2,3,4,5-tetrahydro-1H-benzo [d] azepin-7-amine]
32 | 0.0035 | CCn1cc(-c2ccnc(Nc3ccc4c(c3)CN(CC(C)(C)O)CC4)n2)c(-c2cccnc2)n1 [Example 106, 1-(7-((4-(1-Ethyl-3-(pyridin-3-yl)-1H-pyrazol-4-yl)pyrimidin-2-yl)amino)-3,4-dihydroisoquinolin-2(1H)-yl)-2-methylpropan-2-ol]
